Assay results as given in the supplement of paper PMC8882468.
± gives the standard deviation of the averaged measurements.

Experiments:
Assay in all cases: CTG-3D luminescence at 96 h relative to day-0 seeding control (ratio to day 0); higher = more growth / less cytotoxicity; PDxO 3D drug screen, 96 h, CTG-3D normalised to day-0 seeding control.
HCI-017.E2 = system: HCI-017.E2 (organoid from an ER-positive breast cancer xenograft)
HCI-001 = system: HCI-001 (organoid from a triple-negative breast cancer xenograft)
HCI-002 = system: HCI-002 (organoid from a triple-negative breast cancer xenograft)
MDA-MB-231 = system: MDA-MB-231
HCI-023 = system: HCI-023 (organoid from a triple-negative breast cancer xenograft)

Cc1cc(Nc2ncc(Cl)c(Nc3ccccc3S(=O)(=O)C(C)C)n2)c(OC(C)C)cc1C1CCNCC1 [ceritinib]
CTG-3D luminescence at 96 h
Details | 12.5 pM | 0.00025 µM | 0.005 µM | 0.1 µM | 1 µM | 10 µM | 100 µM | 625 fM
HCI-017.E2 | 1.94 ± 0.52 | 2.16 ± 0.13 | 2.23 ± 0.49 | 2.22 ± 0.29 | 1.988 ± 0.013 | 0.0699 ± 0.078 | -0.00443 ± 0.0012 | 2.22 ± 0.34
MDA-MB-231 | 4.39 ± 1.4 | 4.39 ± 1.3 | 4.6 ± 1.5 | 4.48 ± 1.2 | 4.36 ± 1.4 | 0.0178 ± 0.0055 | -0.011 ± 0.0032 | 4.51 ± 1.3

CTG-3D luminescence at 96 h
Details | 12.5 pM | 0.00025 µM | 0.005 µM | 0.1 µM | 1 µM | 10 µM | 100 µM | 625 fM
HCI-001, days in culture: 240 | 1.82 | 1.14 | 1.07 | 1.15 | 0.858 | 0.121 | -0.00201 | 1.26
HCI-001, days in culture: 260 | 2.25 | 1.05 | 1.67 | 1.28 | 1.21 | 0.018 | -0.00298 | 1.55
HCI-001, days in culture: 269 | 1.92 | 1.77 | 1.43 | 1.82 | 1.23 | -0.0266 | -0.0412 | 1.9
HCI-001, days in culture: 327 | 1.58 | 1.14 | 1.9 | 1.78 | 1.24 | 0.164 | -0.00344 | 1.92
HCI-001, days in culture: 346 | 1.59 | 1.27 | 1.16 | 1.24 | 1.19 | 0.45 | -0.00215 | 1.39
HCI-001, days in culture: 364 | 1.52 | 1.11 | 1.4 | 0.954 | 1.13 | 0.315 | -0.00387 | 1.85
HCI-002, days in culture: 62 | 2.84 | 2.62 | 3.08 | 2.52 | 2.11 | 0.00947 | -0.00984 | 3.15
HCI-002, days in culture: 82 | 3.23 | 2.64 | 2.18 | 2.46 | 1.76 | 0.00838 | -0.0057 | 2.72
HCI-002, days in culture: 91 | 4.25 | 3.86 | 3.52 | 4.11 | 3.29 | 0.00341 | -0.0215 | 4.18
HCI-002, days in culture: 191 | 2.47 | 2.8 | 2.59 | 2.41 | 2.23 | 0.00759 | -0.00732 | 2.72
HCI-002, days in culture: 209 | 2.4 | 2.59 | 2.23 | 2.14 | 2.03 | 0.00677 | -0.00747 | 2.35
HCI-002, days in culture: 227 | 6.1 | 6.52 | 5.45 | 5.99 | 4.45 | -0.223 | -0.242 | 7.25
HCI-017.E2, days in culture: 85 | 2.65 | 2.49 | 2.67 | 2.69 | 2.49 | 0.446 | -0.00537 | 2.49
HCI-023, days in culture: 111 | 1.47 | 1.19 | 1.18 | 1.12 | 0.844 | 0.00455 | -0.00268 | 1.19
HCI-023, days in culture: 128 | 1.39 ± 0.21 | 1.2 ± 0.45 | 1.17 ± 0.21 | 1.65 ± 0.042 | 0.92736 ± 0.00061 | 0.00417 ± 0.0011 | -0.00332 ± 0.00062 | 1.65 ± 0.49

C=CCn1c(=O)c2cnc(Nc3ccc(N4CCN(C)CC4)cc3)nc2n1-c1cccc(C(C)(C)O)n1 [adavosertib]
CTG-3D luminescence at 96 h
Details | 12.5 pM | 0.00025 µM | 0.005 µM | 0.1 µM | 1 µM | 10 µM | 100 µM | 625 fM
HCI-017.E2 | 1.84 ± 0.1 | 2.24 ± 0.056 | 2.2 ± 0.46 | 2.13 ± 0.035 | 1.78 ± 0.26 | 1.28 ± 0.21 | 1.51 ± 0.054 | 2.15 ± 0.3
MDA-MB-231 | 4.36 ± 1.4 | 4.34 ± 1.4 | 4.48 ± 1.6 | 4.31 ± 1.4 | 3.06 ± 0.89 | 1.05 ± 0.27 | 1.27 ± 0.38 | 4.41 ± 1.3

CTG-3D luminescence at 96 h
Details | 12.5 pM | 0.00025 µM | 0.005 µM | 0.1 µM | 1 µM | 10 µM | 100 µM | 625 fM
HCI-001, days in culture: 240 | 1.67 | 0.913 | 1.22 | 0.745 | 0.618 | 0.244 | 0.152 | 1.51
HCI-001, days in culture: 260 | 1.62 | 1.31 | 2.32 | 1.44 | 1.04 | 0.27 | 0.15 | 1.14
HCI-001, days in culture: 269 | 1.43 | 1.7 | 1.59 | 1.8 | 0.496 | 0.254 | 0.087 | 1.65
HCI-001, days in culture: 327 | 1.54 | 1.49 | 1.68 | 1.68 | 1.18 | 0.193 | 0.182 | 1.68
HCI-001, days in culture: 346 | 1.44 | 1.34 | 1.22 | 1.52 | 1.48 | 0.163 | 0.121 | 1.33
HCI-001, days in culture: 364 | 1.41 | 1.15 | 1.37 | 1.17 | 0.983 | 0.13 | 0.0626 | 1.6
HCI-002, days in culture: 62 | 3.1 | 2.91 | 2.73 | 2.4 | 1.32 | 0.225 | 0.324 | 2.86
HCI-002, days in culture: 82 | 2.82 | 2.68 | 2.02 | 2.52 | 1.53 | 0.198 | 0.134 | 2.69
HCI-002, days in culture: 91 | 3.69 | 3.67 | 3.79 | 3.35 | 1.82 | 0.274 | 0.495 | 4.31
HCI-002, days in culture: 191 | 2.59 | 2.7 | 2.5 | 2.3 | 1.76 | 0.247 | 0.507 | 2.47
HCI-002, days in culture: 209 | 2.27 | 2.42 | 2.11 | 1.89 | 1.5 | 0.217 | 0.128 | 2.35
HCI-002, days in culture: 227 | 6.7 | 6.34 | 6.07 | 6.24 | 2.13 | 0.312 | 0.123 | 6.55
HCI-017.E2, days in culture: 85 | 3.02 | 3.07 | 2.89 | 2.57 | 2.45 | 1.09 | 1.58 | 2.77
HCI-023, days in culture: 111 | 1.63 | 1.12 | 1.18 | 1.1 | 0.554 | 0.112 | 0.0325 | 1.39
HCI-023, days in culture: 128 | 1.68 ± 0.18 | 1.92 ± 0.36 | 1.34 ± 0.2 | 1.47 ± 0.25 | 0.441 ± 0.1 | 0.148 ± 0.045 | 0.06302 ± 0.00018 | 1.85 ± 0.45
